Several values for one entry are separate records, joined by “and”; a condition that tells them apart may be missing. Identical values can stand only once. Records with an inconclusive call do not appear.

The text below walks through data of PubChem BioAssay AID272 (DTP/NCI, 2004).

The experiment concerns Lewis lung carcinoma i.m., BDF1 mice, T/C %. Description: NCI In Vivo Anticancer Drug Screen. Data for tumor model Lewis Lung Carcinoma (intramuscular) in B6D2F1 (BDF1) mice. Put shortly: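 Mice carrying transplantable tumours received test compound. Survival or tumour size was recorded and expressed as the treated-group value (T) divided by the vehicle-treated control-group value (C).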

[1] abbreviates: endpoint: mean tumor weight (est.), dose: 25.0 mg/kg/injection, schedule: Q01DX011 (ip), vehicle: saline with Tween-80, higher = larger tumour.
[2] abbreviates: endpoint: mean tumor weight (est.), dose: 50.0 mg/kg/injection, schedule: Q01DX011 (ip), vehicle: saline with Tween-80, higher = larger tumour.

Take `O=C(CBr)OCCOc1ccccc1`: the T/C reads like this: (endpoint: mean tumor weight (est.), dose: 5.0 mg/kg/injection, schedule: Q01DX011 (ip), vehicle: saline with Tween-80, higher = larger tumour) 85 % of control; (endpoint: mean tumor weight (est.), dose: 10.0 mg/kg/injection, schedule: Q01DX011 (ip), vehicle: saline with Tween-80, higher = larger tumour) 93 % of control; (endpoint: mean tumor weight (est.), dose: 20.0 mg/kg/injection, schedule: Q01DX011 (ip), vehicle: saline with Tween-80, higher = larger tumour) 85 % of control; (endpoint: median survival time, dose: 5.0 mg/kg/injection, schedule: Q01DX011 (ip), vehicle: saline with Tween-80, higher = longer survival) 88 % of control; (endpoint: median survival time, dose: 10.0 mg/kg/injection, schedule: Q01DX011 (ip), vehicle: saline with Tween-80, higher = longer survival) 104 % of control; (endpoint: median survival time, dose: 20.0 mg/kg/injection, schedule: Q01DX011 (ip), vehicle: saline with Tween-80, higher = longer survival) 108 % of control.

Turning to `Nc1nc(Cl)nc2c1ncn2C1OC(CO)C(O)C1O` (centres undefined), the T/C is 72 % of control under setting [1]; 72 % of control under setting [2]; 36 % of control (endpoint: mean tumor weight (est.), dose: 100.0 mg/kg/injection, schedule: Q01DX011 (ip), vehicle: saline with Tween-80, higher = larger tumour); 102 % of control (endpoint: median survival time, dose: 25.0 mg/kg/injection, schedule: Q01DX011 (ip), vehicle: saline with Tween-80, higher = longer survival); 93 % of control (endpoint: median survival time, dose: 50.0 mg/kg/injection, schedule: Q01DX011 (ip), vehicle: saline with Tween-80, higher = longer survival).

With `COC(=O)C1Cc2cncn2C(=O)N1` (centres undefined), the T/C by setting is: (endpoint: median survival time, dose: 4.0 mg/kg/injection, schedule: Q01DX009 (ip), vehicle: water, higher = longer survival) 113 % of control; (endpoint: median survival time, dose: 8.0 mg/kg/injection, schedule: Q01DX009 (ip), vehicle: water, higher = longer survival) 108 % of control; (endpoint: median survival time, dose: 16.0 mg/kg/injection, schedule: Q01DX009 (ip), vehicle: water, higher = longer survival) 104 % of control; (endpoint: median survival time, dose: 32.0 mg/kg/injection, schedule: Q01DX009 (ip), vehicle: water, higher = longer survival) 103 % of control; (endpoint: median survival time, dose: 64.0 mg/kg/injection, schedule: Q01DX009 (ip), vehicle: water, higher = longer survival) 98 % of control.

Regarding `COCC(O)Cn1ccnc1[N+](=O)[O-]` (centres undefined), the T/C runs as follows: (endpoint: median survival time, dose: 600.0 mg/kg/injection, schedule: Q01DX001 (ip), vehicle: saline, higher = longer survival) 90 % of control and 92 % of control and 96 % of control; (endpoint: median survival time, dose: 1000.0 mg/kg/injection, schedule: Q01DX001 (ip), vehicle: saline, higher = longer survival) 92 % of control and 104 % of control and 106 % of control.

With `CSC(=S)N/N=C/c1ccccn1`, the T/C was 67 % of control (endpoint: mean tumor weight (est.), dose: 12.5 mg/kg/injection, schedule: Q01DX011 (ip), vehicle: saline with Tween-80, higher = larger tumour); 92 % of control under setting [1]; 50 % of control under setting [2].

Consider `N[C@@H](Cc1ccc(N(CCCl)CCCl)cc1)C(=O)O`, for which the T/C was 55 % of control (endpoint: mean tumor weight, dose: 0.38 mg/kg/injection, schedule: Q01DX011 (ip), vehicle: other, higher = larger tumour); 86 % of control (endpoint: mean tumor weight, dose: 0.38 mg/kg/injection, schedule: Q01DX011 (ip), vehicle: saline, higher = larger tumour); 48 % of control (endpoint: mean tumor weight, dose: 0.75 mg/kg/injection, schedule: Q01DX011 (ip), vehicle: other, higher = larger tumour); 77 % of control (endpoint: mean tumor weight, dose: 0.75 mg/kg/injection, schedule: Q01DX011 (ip), vehicle: saline, higher = larger tumour); 69 % of control (endpoint: mean tumor weight, dose: 1.5 mg/kg/injection, schedule: Q01DX011 (ip), vehicle: other, higher = larger tumour); 29 % of control (endpoint: mean tumor weight, dose: 3.0 mg/kg/injection, schedule: Q01DX011 (ip), vehicle: other, higher = larger tumour). Moreover, the T/C by setting is: (endpoint: mean tumor weight, dose: 3.0 mg/kg/injection, schedule: Q01DX011 (ip), vehicle: saline, higher = larger tumour) 47 % of control and 59 % of control; (endpoint: median survival time, dose: 0.38 mg/kg/injection, schedule: Q01DX011 (ip), vehicle: other, higher = longer survival) 111 % of control; (endpoint: median survival time, dose: 0.38 mg/kg/injection, schedule: Q01DX011 (ip), vehicle: saline, higher = longer survival) 105 % of control and 112 % of control; (endpoint: median survival time, dose: 0.6 mg/kg/injection, schedule: Q01DX011 (ip), vehicle: saline, higher = longer survival) 104 % of control and 116 % of control; (endpoint: median survival time, dose: 0.75 mg/kg/injection, schedule: Q01DX011 (ip), vehicle: other, higher = longer survival) 118 % of control; (endpoint: median survival time, dose: 0.75 mg/kg/injection, schedule: Q01DX011 (ip), vehicle: saline, higher = longer survival) 110 % of control and 112 % of control and 120 % of control. The T/C (endpoint: median survival time, dose: 1.2 mg/kg/injection, schedule: Q01DX011 (ip), vehicle: saline, higher = longer survival) was 108 % of control; the T/C (endpoint: median survival time, dose: 1.5 mg/kg/injection, schedule: Q01DX011 (ip), vehicle: other, higher = longer survival) was 101 % of control; the T/C (endpoint: median survival time, dose: 1.5 mg/kg/injection, schedule: Q01DX011 (ip), vehicle: saline, higher = longer survival) is 91 % of control; the T/C (endpoint: median survival time, dose: 2.5 mg/kg/injection, schedule: Q01DX011 (ip), vehicle: saline, higher = longer survival) was 103 % of control; the T/C (endpoint: median survival time, dose: 3.24 mg/kg/injection, schedule: Q01DX001 (ip), vehicle: saline, higher = longer survival) is 108 % of control; the T/C (endpoint: median survival time, dose: 5.4 mg/kg/injection, schedule: Q01DX001 (ip), vehicle: saline, higher = longer survival) is 119 % of control.

For the compound `CCN(CC)CCNc1ccc(CO)c2sc3ccccc3c(=O)c12`, the T/C was 110 % of control (endpoint: mean tumor weight (est.), dose: 18.75 mg/kg/injection, schedule: Q01DX011 (ip), vehicle: saline, higher = larger tumour); 56 % of control (endpoint: mean tumor weight (est.), dose: 37.5 mg/kg/injection, schedule: Q01DX011 (ip), vehicle: saline, higher = larger tumour); 19 % of control (endpoint: mean tumor weight (est.), dose: 75.0 mg/kg/injection, schedule: Q01DX011 (ip), vehicle: saline, higher = larger tumour); 105 % of control (endpoint: median survival time, dose: 18.75 mg/kg/injection, schedule: Q01DX011 (ip), vehicle: saline, higher = longer survival); 107 % of control (endpoint: median survival time, dose: 37.5 mg/kg/injection, schedule: Q01DX011 (ip), vehicle: saline, higher = longer survival); 113 % of control (endpoint: median survival time, dose: 75.0 mg/kg/injection, schedule: Q01DX011 (ip), vehicle: saline, higher = longer survival).

For the compound `N=c1ccn2c(n1)OC1C(O)C(CO)OC12` (centres undefined), the T/C is 34 % of control (endpoint: mean tumor weight, dose: 200.0 mg/kg/injection, schedule: Q01DX011 (ip), vehicle: water, higher = larger tumour); 64 % of control (endpoint: mean tumor weight, dose: 400.0 mg/kg/injection, schedule: Q01DX011 (ip), vehicle: water, higher = larger tumour); 115 % of control (endpoint: median survival time, dose: 200.0 mg/kg/injection, schedule: Q01DX011 (ip), vehicle: water, higher = longer survival); 124 % of control (endpoint: median survival time, dose: 400.0 mg/kg/injection, schedule: Q01DX011 (ip), vehicle: water, higher = longer survival).
